# Test results taken from ChEMBL document CHEMBL3507680, “University of Dundee, Gates Library screen for HepG2 cell viability”.
# Assay: Human HepG2 cell viability assay in 384 well format
# Assay type: toxicity, cell-based
# Design: dose 125 nL, time 70.5 hour; cytotoxicity at 70.5 h: concentration not given beside the values
# Conditions: HepG2 cells, read-out: Inhibition
row,SMILES,cytotoxicity at 70.5 h [%]
1,CCC(CC)C(O)CNC(=O)Nc1cccc(-c2nccn2C)c1 (configuration not stated),-3.63
2,Cn1cc(C(=O)NC2CCN(C(=O)NCC3CCSCC3)CC2)cn1,-3.27
3,COc1ccc(C(=O)N(C)Cc2cccc(C#N)c2)c(OC)c1OC,-5.18
4,COCCN1CCC2(CC1)CN(CCn1cccn1)C(=O)CO2,1.22
5,CC(C)c1ccc(C(O)CN2CCN(Cc3nccn3C)CC2)cc1 (configuration not stated),-3.6
6,CCOCCCNC(=O)C1CCC(=O)N(CCc2ccc(Cl)cc2)C1 (configuration not stated),-7.25
7,CN(C)CCNCC1CCOC(C)(C)C1 (configuration not stated),-10.1
8,O=C1CC(c2ccc(C(=O)O)cc2)c2ncn(-c3ccccc3)c2N1 (configuration not stated),-6.45
9,Cc1ccc(CC(=O)NCC(O)c2cc(Cl)cc(Cl)c2)cn1 (configuration not stated),-3.94
10,CCOCC1CN(c2ncccn2)Cc2cnn(CC3CCOCC3)c21 (configuration not stated),9.85
11,Cc1ccc(NC(=O)CN2CCCNC2=O)c(SC(F)(F)F)c1,-7.48
12,Cc1cc(F)ccc1S(=O)(=O)NCC(O)c1cccn1C (configuration not stated),0.803
13,N#Cc1cnc2ccccc2c1N1CCNCC1,-1.59
14,CSCCCN1CCC[C@]2(C(=O)O)CN(c3cnccn3)CC[C@@H]12,26.4
15,CN(CC(=O)NCC(O)c1cccc(F)c1)C(=O)OC(C)(C)C (configuration not stated),-3.05
16,COC(=O)C(C)(C)C(C)(C)NC(=O)Nc1nnc(-c2ccccn2)s1,-10.6
17,CCn1ccnc1CN1CCCN(C(=O)c2cccn2C)CC1,23.9
18,CCCc1noc(C(C)N2CCN(CCn3ccccc3=O)CC2)n1 (configuration not stated),-2.24
19,COCC(=O)N1C[C@@H](OCc2cccnc2)[C@H]2OCCC[C@@H]21,14.3
20,CCNC(=O)N1CC[C@@H](CC(=O)O)[C@@H](CC2=NCCc3ccccc32)C1,-2.71
21,c1cc(CN2CCc3ncc(CN4CCCCC4)n3CC2)cs1,19.1

row,SMILES,cytotoxicity at 70.5 h [%]
1,COCCN(Cc1ccccn1)C(=O)Nc1cccnc1-n1cccn1,18.4
2,CN(Cc1ncc(C(C)(C)C)o1)C1CCCN(c2cccnn2)C1 (configuration not stated),-11.9
3,C1CCC(c2nn3c(C4CCCO4)nnc3s2)C1 (configuration not stated),-9.64
4,Cc1cccc(C(C(=O)NCCCc2ccncc2)N(C)C)c1 (configuration not stated),-4.41
5,Cc1ccc([C@@H]2CN(C(=O)c3ccoc3C)C[C@H]2NC(=O)C2CC2)cc1,30.5
6,CCNC(=O)c1ccc(N2CCCC(c3nccn3C(C)C)C2)nc1 (configuration not stated),-10.3
7,COCC(C)(C#N)NC(=O)c1cn(-c2cccc(Cl)c2F)nn1 (configuration not stated),-10.4
8,CCC(=O)NCC(=O)NC(C)c1sc(-c2ccccc2F)nc1C (configuration not stated),10.3
9,O=C(NCCc1c[nH]cn1)c1ccccc1C1CCNC1 (configuration not stated),18
10,Cc1noc([C@H]2C[C@H]3OCC[C@H]3N(S(C)(=O)=O)C2)n1,3.17
11,CC(O)CN1CCN(Cc2cccc(C(=O)N3CCCCC3)c2)CC1 (configuration not stated),17.1
12,Cc1cnn(CC2CCCN2Cc2nc3ccccc3n2C)c1 (configuration not stated),-10.6
13,COc1ccc(CC(=O)N2CCCC2Cn2cc(C)cn2)c(OC)c1 (configuration not stated),-0.475
14,Cc1ccc(-c2nc(CNCC3CN(C)CCO3)co2)cc1 (configuration not stated),-2.95
15,CN(Cc1cnc(C(C)(C)C)nc1)Cc1nc2ccc(F)cc2[nH]1,-5.62
16,CCS(=O)(=O)N1CC(c2nc(-c3ccsc3)no2)C1,-3.37
17,Cc1nc(CN2CCN(C(=O)CCc3ccco3)CC2)cs1,-5.22
18,O=C(O)CC1COCCN1C(=O)C1(c2ccc(Cl)cc2)CCC1 (configuration not stated),5.66
19,CCS(=O)(=O)NCCCNC1CSCCc2ccccc21 (configuration not stated),-7.41
20,c1cc(-c2nnc([C@H]3CCNC3)o2)ccn1,-2.31
21,CCc1ccc(C(=O)N2CCCC(n3cncn3)C2)o1 (configuration not stated),-2.71

row,SMILES,cytotoxicity at 70.5 h [%]
1,Cc1n[nH]c(C)c1CN(C)C(C(=O)O)c1c(F)cccc1OC(C)C (configuration not stated),-4.07
2,Cc1nc2c(N(C)Cc3ccnn3C)nc(N)nc2n1C,0.962
3,CCn1c(CN2CCOC(Cn3cncn3)C2)nc2c(F)cccc21 (configuration not stated),15.4
4,COCCNC(=O)C1CN(Cc2csc(C)n2)Cc2ccnn2C1 (configuration not stated),-8.82
5,O=S(=O)(c1ccc(-c2cnco2)cc1)N1CCCC2(CCNCC2)CC1,0.207
6,O=C(CCC1CCN(Cc2ncc[nH]2)CC1)Nc1ccccc1Cl,-10.7
7,Cn1c(=O)[nH]c(=O)n2c(CC(=O)NCc3ccccc3)cnc12,-12.3
8,CC(C)n1ncc2c1NC(=O)CC2c1ccccc1Cl (configuration not stated),-6.71
9,CNC(=O)c1ccc(C(=O)N2CCCC2c2cnn(C)c2)cn1 (configuration not stated),1.99
10,Cc1ccsc1-c1nccn1CCN(C)S(C)(=O)=O,-1.88
11,Cc1ccc(N(CC(=O)NCc2nnc3n2CCC3)S(C)(=O)=O)cc1,5.02
12,CCOc1cc([C@H]2N[C@@H](c3nc(C)cs3)Cc3ccsc32)ccc1OC,-6.01
13,CS(=O)(=O)Cc1nc(CN2CCCc3sccc3C2)cs1,-5.84
14,c1ccc(-n2cc(CNC3CCc4ncnn4C3)cn2)cc1 (configuration not stated),-4.52
15,C[C@@H]1CN(CC(=O)NCc2ccccn2)C[C@]1(C)O,-1.62
16,CCOCCC(=O)NCC1COc2c(cccc2OC)C1 (configuration not stated),-4.38
17,Cc1ccc(C(=O)N2CC(C(N)=O)O[C@H](C)C2)c(C)c1 (some centres not stated),1.19
18,COC(=O)c1ccc2nc(CO[C@H]3CN(CC4CC4)C[C@H]3F)[nH]c2c1,1.07
19,CN(C)C(=O)C1CN(Cc2ccc(C#N)cc2)c2ccccc2O1 (configuration not stated),4.19
20,O=C(c1ccc2c(c1)OCO2)N1CCCC(n2cccn2)C1 (configuration not stated),-6.41
21,FC(F)Sc1ccc(NCc2nnc(C3CC3)o2)cc1,-4.17

row,SMILES,cytotoxicity at 70.5 h [%]
1,Cn1cc(C2CCCN2C(=O)c2cnc(-c3ccco3)s2)cn1 (configuration not stated),-4.49
2,COCC(O)CN(C)c1ccnc2ccc(Cl)cc12 (configuration not stated),13.9
3,CN1CCCCC1CC(=O)Nc1ccc2ncn(C)c2c1 (configuration not stated),13.5
4,CC(=O)N1CCC(c2nccnc2-c2ccc(C(=O)O)cc2)CC1,20
5,O=c1c(NCCNCCO)c(N2CCN(c3ccc(F)cc3)CC2)c1=O,-7.08
6,CC(C)CC(CO)NC(=O)NCc1csc(N(C)C)n1 (configuration not stated),0.865
7,Cc1ncc(C(=O)Nc2cncnc2N(C)C)c(Cl)c1Cl,-9.76
8,Cc1noc(C2CCCN(C(=O)c3ccc(Br)o3)C2)n1 (configuration not stated),19.7
9,OC(CNCc1ccccc1C(F)(F)F)c1ccccc1 (configuration not stated),-5.57
10,CCN1CCN(C(=O)c2cc(-c3cccn3C)n[nH]2)[C@H]2CS(=O)(=O)C[C@H]21,-18.3
11,CC1CCN(C(=O)c2cn(-c3cc(N4CCSCC4)ncn3)cn2)CC1,3.74
12,CC(C)CC(=O)N1CCN(Cc2csc(-c3ncccn3)n2)CC1,-5.3
13,COCc1ccc(CN[C@H]2C[C@@H](Cc3cc(CCO)on3)C2(C)C)o1,-1.61
14,Cn1cnc2nc3n(c2c1=O)CCC3,13.6
15,CN(C)S(=O)(=O)NCCn1nc(-c2ccccc2)n(C)c1=O,-4.25
16,Cc1nc(C)n(CCC(=O)NCC2CCCOC2)n1 (configuration not stated),-0.994
17,O=C(N[C@@H]1CC[C@@H](N2CCOCC2)[C@@H]1O)c1cnn2cccnc12,21.8
18,CCOc1ccc(NC(C)C(=O)Nc2cc(C)no2)cc1 (configuration not stated),-5.28
19,Cc1cc(NC2CC3(CCN(Cc4cscn4)C3)C2)ncn1 (configuration not stated),-6.43
